We go through 106 molecules from ChEMBL document CHEMBL3988442, “University of Dundee, Small-Polar-MMV Screening Library” (2021).

Where only a bound is given, the exact number is not on record here.

The target of this assay is ClpP1P2 (Mycobacterium tuberculosis (strain ATCC 25618 / H37Rv), UniProt P9WPC3+P9WPC5). The assay can be described thus: in vitro assay to detect presence of AMC directly proportional to the activity of ClpP1P2. GHDDI collaboration. The assay is classed as functional.
Sequence of ClpP1P2 (P9WPC5 whole entry): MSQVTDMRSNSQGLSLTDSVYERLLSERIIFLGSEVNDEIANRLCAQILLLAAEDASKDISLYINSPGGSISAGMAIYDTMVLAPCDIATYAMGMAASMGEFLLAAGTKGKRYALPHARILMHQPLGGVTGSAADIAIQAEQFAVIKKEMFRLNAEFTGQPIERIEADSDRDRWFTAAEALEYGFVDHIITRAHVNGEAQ
Sequence of ClpP1P2 (P9WPC3 whole entry): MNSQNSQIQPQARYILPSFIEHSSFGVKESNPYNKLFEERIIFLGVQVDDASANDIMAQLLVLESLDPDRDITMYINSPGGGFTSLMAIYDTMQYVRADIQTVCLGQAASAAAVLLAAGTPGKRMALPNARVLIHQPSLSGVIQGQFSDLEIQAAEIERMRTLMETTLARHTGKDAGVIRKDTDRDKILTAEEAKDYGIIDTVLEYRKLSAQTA
With `COCc1ccccc1CNC(=O)CNc1ccccc1C(C)=O`, the IC50 is over 100 µM.
The result for `Cc1nc(C)n(CC2CCCN(CCC(=O)NC3CCCCC3)C2)n1` (stereo unspecified) reads over 100 µM; that for `CCC(C)(C)NC(=O)c1ccc(-c2ccco2)[nH]c1=O`, over 100 µM.
The result for `CC(C)c1nn(C)c(Cl)c1CNCC(=O)N1CCN(C)CC1` reads over 100 µM; that for `Cn1c(N)c2c(=O)n(C)c(-c3ccc(Cl)cc3Cl)cc2c(C#N)c1=O`, over 100 µM.
Under `CN(C)C1CCN(C(=O)c2cc(-c3ccn(C)n3)n3ccccc23)CC1` stands over 100 µM; under `Cn1ncc(N2CCOC(CCNC(=O)CO)C2)cc1=O` (stereo unspecified), over 100 µM; under `CNC(=O)CNC(=O)c1ccc(-c2scnc2C)nc1`, over 100 µM.
Regarding `c1ccc(-n2cc(CN3CCCC3Cn3cccn3)nn2)cc1` (stereo unspecified), the IC50 is over 100 µM.
Under `Cc1ccc2nccc(C(=O)N3CCOC(CCN(C)C)C3)c2c1` (stereo unspecified) stands over 100 µM; under `Cc1cc(C)c2cc(CNCC3CCCO3)c3nn(C)c(=O)n3c2c1` (stereo unspecified), over 100 µM; under `CC(C)n1cnc(-c2nc(C(=O)N3CCN(C)CC3)c3ccccn23)c1`, over 100 µM.
Under `CC(C)N1CC[C@@](C)(O)[C@H](n2ccc(=O)[nH]c2=O)C1` stands over 100 µM.
Under `Cc1nc(-c2nc(C(=O)NC3CC3)c3ccccn23)cn1C(C)C` stands over 100 µM; under `COCCn1cnc(-c2nc(C(=O)N3CCOCC3)c3ccccn23)c1`, over 100 µM.
In the case of `Cc1cnn(CC2CN(Cc3nc4cccnc4[nH]3)CCO2)c1` (stereo unspecified), the IC50 was over 100 µM.
The result for `COc1ccc(-c2cc3cccn(CC(=O)N4CCOCC4)c-3n2)cc1` reads over 100 µM; that for `Cn1cnc(-c2nc(C(=O)NCC3CCCO3)c3ccccn23)c1` (stereo unspecified), over 100 µM.
`CNc1cnc(CC2COCCN(Cc3ccccc3)C2)cn1` (stereo unspecified): the IC50 was over 100 µM.
Under `O=C(CN1CCC2(CC1)NC(=O)c1cc(Br)ccc1N2)NC1CC1` stands over 100 µM.
Under `CC(C)c1ncc2c(n1)CN(Cc1nnc(Cc3ccccc3)o1)CC2` stands over 100 µM.
The result for `CNC(=O)c1cc2c(nc1NCC1CC1)CCN(S(=O)(=O)C1CC1)CC2` reads over 100 µM; that for `O=C1NC2(CCN(C(=O)CN3CCOCC3)CC2)Nc2ccc(Cl)cc21`, over 100 µM.
Take `CC(C)CNC(=O)c1cn(-c2ccccn2)c(=O)c2ccccc12`: the IC50 is over 100 µM.
Under `CCNCCOc1ccc(-c2cc(N)nc3[nH]ccc23)cc1` stands over 100 µM; under `COCc1nnc(NC(=O)CN2C(=O)c3ccccc3NC2C(C)C)s1` (stereo unspecified), over 100 µM; under `COc1ccc(-c2cnc(N(C)C)nc2C2CNCCO2)cc1` (stereo unspecified), over 100 µM.
Turning to `COc1ccc2c(c1)C(=O)N(C)C1(CCN(CC=C(C)C)CC1)N2`, the IC50 was over 100 µM.
In the case of `c1ccc(Cc2nnc(CN3CCc4cncnc4C3)o2)cc1`, the IC50 is over 100 µM.
For the molecule `CN1CCC(c2nccnc2Nc2cnccn2)CC1`, the IC50 is over 100 µM.
The result for `CC(C)Nc1ccnc(-c2ccnc3c2ccn3C)n1` reads over 100 µM; that for `CCc1nc(C2CCCN2C(=O)CCCn2cncn2)no1` (stereo unspecified), over 100 µM.
For the molecule `CCc1ncc2c(n1)CN(Cc1nnc(Cc3ccccc3)o1)CC2`, the IC50 is over 100 µM.
The result for `c1ccc(CCCN2CCOC(Cn3cccn3)C2)cc1` (stereo unspecified) reads over 100 µM.
Consider `N#Cc1ccnc(NCc2cc3n(n2)CCCN(C(=O)C2CCC2)C3)c1`, for which the IC50 is over 100 µM.
On to `CC(C)n1ccc(-c2cc(C(=O)N3CCN(C)CC3)c3ccccn23)n1`, for which the IC50 was over 100 µM.
As to `Cc1nc(NCC2CC2)nc2c1COCC21CCN(C(=O)C(C)(C)C)C1` (stereo unspecified), the IC50 was over 100 µM.
The result for `Cc1ccc(CN(CC(=O)N2CCOC(C)C2)C2CC2)cc1` (stereo unspecified) reads over 100 µM; that for `CC(=O)N1CCC(c2cc(C(F)(F)F)n3ccnc3n2)CC1`, over 100 µM; that for `CS(=O)(=O)NC1CCN(C(=O)NCc2ccccn2)CC1`, over 100 µM.
Under `Cc1nn(C)c(C)c1C1CCCN1C(=O)c1nccnc1N` (stereo unspecified) stands over 100 µM; under `Cc1cnn(CCNc2cnc3ccccc3n2)c1`, over 100 µM.
Under `Cc1nc(-c2cc(C(=O)N3CCCN(C)CC3)c3ccccn23)cn1C` stands over 100 µM; under `O=C(NCCCn1cccn1)NCC(c1ccco1)N1CCCC1` (stereo unspecified), over 100 µM.
Turning to `NC(=O)CC1CCCN(c2cncc(SCc3ccccc3)n2)C1` (stereo unspecified), the IC50 was over 100 µM.
Turning to `Cc1cnn(CC2CN(Cc3csc(C4CCCC4)n3)CCO2)c1` (stereo unspecified), the IC50 is over 100 µM.
Under `CN(C)c1ccnc(-c2ccnc3c2ccn3C)n1` stands over 100 µM; under `COCC(C)N1CCc2onc(-c3ccc(F)c(F)c3)c2C1` (stereo unspecified), over 100 µM; under `c1cnnc(N2CCCC(NCc3nnc(-c4ccco4)o3)C2)c1` (stereo unspecified), over 100 µM.
The result for `Cc1cc(C)n(-c2cncc(NCCNC(=O)C(C)(C)C)n2)n1` reads over 100 µM.
The result for `COc1ncccc1CNC(=O)c1cc(C)on1` reads over 100 µM.
For `CCC[C@@H]1CN(c2cncc(C(=O)N3CCOCC3)n2)C[C@H]1N(C)C`, the IC50 was over 100 µM.
The result for `O=C(NCc1cccnc1)c1ccc2nccn2c1` reads over 100 µM.
Under `Fc1ccccc1-c1cc(N2[C@@H]3CC[C@H]2CNC3)n2nccc2n1` stands over 100 µM; under `CCNC(=O)[C@@H]1C[C@H](NC(=O)c2cc(=O)[nH]c3ccc(C)cc23)CN1C`, over 100 µM.
Under `Cc1cc(C)n(-c2cncc(NCCNC(=O)CC3CCCC3)n2)n1` stands over 100 µM.
For `CCc1nc(C2CCCN(C(=O)CC3CCOCC3)C2)no1` (stereo unspecified), the IC50 is over 100 µM.
Turning to `CC(C)Oc1ccc(C(=O)N2CCC(Nc3cccnn3)CC2)cn1`, the IC50 was over 100 µM.
The result for `CC(C)n1nc2c(cc1=O)CN(Cc1nc3ccccc3o1)CC2` reads over 100 µM; that for `Cc1nn(C)c(C)c1C(=O)NCc1cc(N(C)C)nc2ccccc12`, over 100 µM.
Under `Cn1c(CN2CCCC(Cn3cncn3)C2)nc2ccccc21` (stereo unspecified) stands over 100 µM.
The result for `Cc1cccc(CN(C(=O)NCc2ccccn2)C2CC2)c1` reads over 100 µM; that for `N#Cc1ccc(OC[C@]23COC[C@H]2CN(Cc2ccoc2)C3)nc1`, over 100 µM; that for `COc1cccc(-c2cc(NCCO)nc3[nH]ccc23)n1`, over 100 µM.
Consider `CCc1nnc2n1CCN(C(=O)c1ccc(-c3ccco3)[nH]c1=O)C2`, for which the IC50 was over 100 µM.
Consider `CC(=O)N1CCC(c2cncc(N3CCOCC3)n2)CC1`, for which the concentration for half-maximal inhibition (IC50) is over 100 µM.
The result for `COc1cccc(-c2ccnc3nc(N4CCCCC4)[nH]c(=O)c23)c1` reads over 100 µM; that for `CC(C)C1Nc2ccccc2C(=O)N1CC(=O)Nc1nc2c(s1)CCC2` (stereo unspecified), over 100 µM; that for `Cc1noc(CN(CCc2cccs2)Cc2cccc(C#N)c2)n1`, over 100 µM.
In the case of `CN(C)c1cc(CNC(=O)Nc2ccc(N3CCCC3)nc2)ccn1`, the IC50 is over 100 µM.
Under `Cc1ccccc1OCCN1CCn2c(C)nnc2C1` stands over 100 µM; under `O=C(CO)N1CCC(CCc2ccnc(Nc3cnccn3)c2)CC1`, over 100 µM; under `N[C@H]1CN(C(=O)c2ccccc2OCCc2ccccc2)C[C@@H]1C1CC1`, over 100 µM.
Under `CCNC(=O)C1CCCN(c2ccc3ccc(F)cc3n2)C1` (stereo unspecified) stands over 100 µM.
With `CCCn1cc(-c2cc(-c3c[nH]cn3)c(C#N)c(N)n2)c(C)n1`, the IC50 was over 100 µM.
The result for `c1cc(-c2nc(CN3CCc4c(ncn4C4CC4)C3)cs2)cs1` reads over 100 µM; that for `CCc1nccn1CCC(=O)N1CCCC1c1cncc(NC)n1` (stereo unspecified), over 100 µM.
Turning to `O=C(NC1CCCC1)c1cnn2c(-c3ccco3)ccnc12`, the IC50 is over 100 µM.
Turning to `CCC[C@H]1CN(c2cncc(C(=O)N(C)C)n2)C[C@@H]1N(C)C`, the IC50 is over 100 µM.
As for `CCCn1[nH]cc/c1=N\C(=O)CN1CCc2c(nc(C3CC3)n2C)C1`, the IC50 was over 100 µM.
Under `Cc1cc(NC(=O)CN2CCn3c(nnc3C(C)C)C2)no1` stands over 100 µM.
The result for `CNC(=O)c1cc2c(nc1NCC(C)C)CCN(C)CC2` reads over 100 µM; that for `O=C1NC2(CCN(CC(=O)N3CCOCC3)CC2)Nc2ccccc21`, over 100 µM; that for `CCN(CC)c1nc(C)cc(C(=O)Nc2cccc(C(N)=O)c2)n1`, over 100 µM.
On to `Cn1ccnc1CN1CCN(CC(O)c2cc(F)ccc2F)CC1` (stereo unspecified), for which the IC50 is over 100 µM.
For `COCCOc1ccc(CNc2cnc3ccccc3n2)cn1`, the IC50 is over 100 µM.
The result for `CCOCCCNCc1cc2c(C)cc(C)cc2n2c(=O)n(C)nc12` reads over 100 µM; that for `COCc1cccc(CNCc2c(C)nn(C)c2N2CCOCC2)c1`, over 100 µM; that for `CC(C)N1CCC(c2cc(C(F)(F)F)n3ccnc3n2)CC1`, over 100 µM.
The result for `O=S(=O)(c1ccccc1)N1CCOCC(Cc2cccnc2)C1` (stereo unspecified) reads over 100 µM; that for `Cc1n[nH]c(C)c1-c1cc(-c2cccc(O)c2)nc(N)c1C#N`, over 100 µM.
Under `COC(=O)COc1cccc(NS(=O)(=O)c2cc(C(=O)O)cs2)c1` stands over 100 µM.
Turning to `N#Cc1cccnc1N1CCCN(C(=O)CCn2cncn2)CC1`, the IC50 was over 100 µM.
The result for `O=C(NC1CCC1)c1c2c(N3CCCC3)ncnc2n2ccccc12` reads over 100 µM; that for `Cc1nc2oc(C(=O)N3CCOCC3)c(N)c2c2c1CCCC2`, over 100 µM.
Consider `CN(C)C1CCN(C(=O)Cc2csc(-c3ncccn3)n2)CC1`, for which the IC50 is over 100 µM.
The result for `CC(c1cccnc1)N(C)Cc1cc2cc3c(cc2[nH]c1=O)OCO3` (stereo unspecified) reads over 100 µM.
As to `CCS(=O)(=O)N1CCc2cc(C(=O)NC)c(NCC3CC3)nc2CC1`, the concentration for half-maximal inhibition (IC50) was over 100 µM.
Under `Cn1ccc2c(cnc3nc(-c4ccncc4)nn32)c1=O` stands over 100 µM; under `Cc1cccc(-c2cc(-c3c(C)nn(CCO)c3C)c(C#N)c(N)n2)c1`, over 100 µM; under `Cc1nc(CN2CCCN(C(=O)c3sccc3C#N)CC2)cs1`, over 100 µM.
The result for `CCC1(CO)CCCN(c2ncccc2C#N)C1` (stereo unspecified) reads over 100 µM; that for `O=C(c1cncc(NCC2COc3ccccc3C2)n1)N1CCOCC1` (stereo unspecified), over 100 µM.
The result for `CNC(=O)C1CCCN1c1nc(C)c2ccccc2n1` (stereo unspecified) reads over 100 µM.
In the case of `CC(Nc1ncnc2c1NC(=O)CN2)c1ccccn1` (stereo unspecified), the IC50 was over 100 µM.
The result for `Cc1nn(CCNc2ncnc3c2NC(=O)CN3)c(C)c1Cl` reads over 100 µM.
